Calls of active or inactive are those of the source. Cut-off read from the data, not from the text of the source, for most assays here: actives have a measured EC50 and inactives only a lower limit.
What was measured:
[1] = Luminescence Cell-Based Dose Response HTS to Identify Inhibitors of 5'UTR Stem-Loop Driven Prion Protein mRNA Translation in H4 Neuroglioblastoma Cells. [Related pubchem assays: 1827 (Project Summary), 1813 (Primary HTS)]; assay type: functional
[2] = biological target: T1, Heat shock factor protein 1 (Mus musculus, UniProt P38532); experiment: HSF1 potentiators in luciferase reporter cells, confirmation, cell-based, NIH3T3, luminescence, dose retest (AID 435004); assay type: functional;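 note: stress induced by proteasome inhibitor MG132 added 30 min after compound; luciferase reporter driven by HSF1 response element in NIH3T3 cells; actives raise luminescence as potentiators of the MG132 stress response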
T1 sequence (P38532 whole entry): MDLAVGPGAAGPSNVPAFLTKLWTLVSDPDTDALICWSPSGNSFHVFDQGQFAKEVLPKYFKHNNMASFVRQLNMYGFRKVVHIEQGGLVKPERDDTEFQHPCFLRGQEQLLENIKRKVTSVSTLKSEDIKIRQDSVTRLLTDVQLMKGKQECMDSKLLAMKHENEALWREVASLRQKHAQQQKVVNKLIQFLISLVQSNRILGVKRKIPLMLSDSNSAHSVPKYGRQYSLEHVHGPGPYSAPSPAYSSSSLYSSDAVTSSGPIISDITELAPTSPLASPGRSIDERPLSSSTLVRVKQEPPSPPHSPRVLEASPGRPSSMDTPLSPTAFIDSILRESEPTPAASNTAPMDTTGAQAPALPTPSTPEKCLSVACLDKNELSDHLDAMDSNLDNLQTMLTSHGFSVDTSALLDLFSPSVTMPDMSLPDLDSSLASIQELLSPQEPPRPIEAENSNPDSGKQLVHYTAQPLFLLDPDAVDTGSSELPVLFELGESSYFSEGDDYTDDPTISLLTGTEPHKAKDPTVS

[3] = inhibitors of SNCA 5'UTR-driven reporter translation, confirmation, H4 neuroglioma cells, luminescence (AID 1988); assay type: functional, cell-based
[4] = test system: HT-1080; experiment: cytotoxicity in HT1080 fibrosarcoma cells, cell-based, fluorescence readout (AID 620); assay type: functional; details: Homo sapiens
[5] = biological target: Luciferin 4-monooxygenase (Photinus pyralis, UniProt P08659); experiment: Counter Screen for Luciferase-based Assay Positives. [Related pubchem assays: 620, 618, 411 ]
[6] = test system: HEK293; experiment: inhibitors of LMP1-driven NF-kB reporter, dose response, cell-based, HEK293, luciferase, cherry-pick (AID 588343); assay type: functional; details: Homo sapiens
[7] = inhibitors of firefly luciferase expression or activity, dose response, H4 neuroglioma cells, luminescence (AID 1990); assay type: functional, cell-based
[8] = biological target: Glyceraldehyde-3-phosphate dehydrogenase (Homo sapiens, UniProt P04406)
[9] = cytotoxicity in HEK-293T cells, dose response, cytotoxicity control for BCR NF-kB inhibitor project, luminescence, B-cell screen hits (AID 489021); assay type: functional, cell-based;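 note: HEK-293T cells carrying an NF-kB luciferase reporter; cells exposed to compound for about 14 hours before viability readout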
[10] = biological target: T2, Protein RecA (Mycobacterium tuberculosis, UniProt P9WHJ3); experiment: Fluorescence Cell-Free Homogeneous Dose Retest to Identify Inhibitors of RecA-Intein Splicing Activity. [Related pubchem assays (depositor defined):AID2097, AID2223, AID489010, AID492950]; assay type: functional
T2 sequence (P9WHJ3 whole entry): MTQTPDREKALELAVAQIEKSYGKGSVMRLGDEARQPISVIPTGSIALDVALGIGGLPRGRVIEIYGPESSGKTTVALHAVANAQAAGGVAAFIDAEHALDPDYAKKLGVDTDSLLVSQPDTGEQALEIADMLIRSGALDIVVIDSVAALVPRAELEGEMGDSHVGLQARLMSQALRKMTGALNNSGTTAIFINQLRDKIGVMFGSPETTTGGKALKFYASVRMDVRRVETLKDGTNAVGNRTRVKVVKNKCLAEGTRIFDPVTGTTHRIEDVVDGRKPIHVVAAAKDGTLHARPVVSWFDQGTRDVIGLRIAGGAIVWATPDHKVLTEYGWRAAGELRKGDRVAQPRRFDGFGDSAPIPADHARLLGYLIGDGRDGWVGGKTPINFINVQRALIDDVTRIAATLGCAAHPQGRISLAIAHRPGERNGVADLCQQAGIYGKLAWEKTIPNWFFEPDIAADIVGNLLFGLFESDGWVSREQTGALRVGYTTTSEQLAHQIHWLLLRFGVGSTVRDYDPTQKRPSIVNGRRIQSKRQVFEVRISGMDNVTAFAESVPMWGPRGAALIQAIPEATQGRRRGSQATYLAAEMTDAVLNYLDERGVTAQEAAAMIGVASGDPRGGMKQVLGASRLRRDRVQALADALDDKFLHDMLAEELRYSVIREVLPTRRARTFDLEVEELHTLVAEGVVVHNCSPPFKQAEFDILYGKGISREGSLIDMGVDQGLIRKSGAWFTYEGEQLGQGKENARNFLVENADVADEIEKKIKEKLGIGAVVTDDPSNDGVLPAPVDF

[11] = biological target: T3, Mannose-6-phosphate isomerase (Homo sapiens, UniProt P34949); experiment: human PMI inhibitors, high substrate, primary screen, biochemical, fluorescence intensity, high mannose 6-phosphate (AID 1220)
T3 sequence (P34949 whole entry): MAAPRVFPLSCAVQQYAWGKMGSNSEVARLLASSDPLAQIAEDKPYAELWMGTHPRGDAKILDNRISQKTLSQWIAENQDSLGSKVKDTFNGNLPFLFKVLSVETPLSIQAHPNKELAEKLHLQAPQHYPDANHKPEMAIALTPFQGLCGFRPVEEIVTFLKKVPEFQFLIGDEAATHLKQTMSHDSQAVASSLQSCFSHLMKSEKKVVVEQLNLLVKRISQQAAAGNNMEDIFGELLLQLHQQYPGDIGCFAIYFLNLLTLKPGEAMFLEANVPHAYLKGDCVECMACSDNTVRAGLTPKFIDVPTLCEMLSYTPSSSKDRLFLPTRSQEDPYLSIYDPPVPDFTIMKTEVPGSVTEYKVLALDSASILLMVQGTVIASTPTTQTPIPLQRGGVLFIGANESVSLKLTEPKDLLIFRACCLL

[12] = biological target: T4, Replicative DNA helicase DnaB (Mycobacterium tuberculosis, UniProt P9WMR3); experiment: DnaB intein splicing inhibitors, dose response, biochemical, cell-free fluorescence (AID 449749); assay type: functional
T4 sequence (P9WMR3 whole entry): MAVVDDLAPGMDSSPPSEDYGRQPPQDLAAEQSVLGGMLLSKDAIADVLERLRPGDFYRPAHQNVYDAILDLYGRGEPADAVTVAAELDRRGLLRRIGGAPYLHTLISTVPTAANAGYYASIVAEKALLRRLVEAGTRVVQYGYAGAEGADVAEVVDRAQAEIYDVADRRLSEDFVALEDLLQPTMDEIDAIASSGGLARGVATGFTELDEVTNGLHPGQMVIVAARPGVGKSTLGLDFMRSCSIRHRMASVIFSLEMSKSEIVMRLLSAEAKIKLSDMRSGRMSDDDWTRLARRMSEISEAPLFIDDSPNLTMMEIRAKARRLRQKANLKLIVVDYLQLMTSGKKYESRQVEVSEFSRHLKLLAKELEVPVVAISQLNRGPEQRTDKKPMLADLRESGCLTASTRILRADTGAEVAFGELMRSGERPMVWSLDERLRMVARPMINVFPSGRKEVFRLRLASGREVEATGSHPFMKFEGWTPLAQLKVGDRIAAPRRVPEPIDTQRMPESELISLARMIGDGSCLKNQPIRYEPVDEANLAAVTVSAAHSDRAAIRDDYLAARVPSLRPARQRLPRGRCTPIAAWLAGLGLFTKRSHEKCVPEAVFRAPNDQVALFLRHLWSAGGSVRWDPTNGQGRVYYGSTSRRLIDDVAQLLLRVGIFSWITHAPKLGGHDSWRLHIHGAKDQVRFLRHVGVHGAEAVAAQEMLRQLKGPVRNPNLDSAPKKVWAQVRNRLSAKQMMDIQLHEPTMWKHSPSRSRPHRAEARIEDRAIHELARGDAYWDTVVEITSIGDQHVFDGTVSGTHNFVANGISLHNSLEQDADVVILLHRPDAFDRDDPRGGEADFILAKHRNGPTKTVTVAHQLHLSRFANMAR

[13] = biological target: T5, Histone-lysine N-methyltransferase NSD2 (Homo sapiens, UniProt O96028); assay type: biochemical
T5 sequence (O96028 whole entry): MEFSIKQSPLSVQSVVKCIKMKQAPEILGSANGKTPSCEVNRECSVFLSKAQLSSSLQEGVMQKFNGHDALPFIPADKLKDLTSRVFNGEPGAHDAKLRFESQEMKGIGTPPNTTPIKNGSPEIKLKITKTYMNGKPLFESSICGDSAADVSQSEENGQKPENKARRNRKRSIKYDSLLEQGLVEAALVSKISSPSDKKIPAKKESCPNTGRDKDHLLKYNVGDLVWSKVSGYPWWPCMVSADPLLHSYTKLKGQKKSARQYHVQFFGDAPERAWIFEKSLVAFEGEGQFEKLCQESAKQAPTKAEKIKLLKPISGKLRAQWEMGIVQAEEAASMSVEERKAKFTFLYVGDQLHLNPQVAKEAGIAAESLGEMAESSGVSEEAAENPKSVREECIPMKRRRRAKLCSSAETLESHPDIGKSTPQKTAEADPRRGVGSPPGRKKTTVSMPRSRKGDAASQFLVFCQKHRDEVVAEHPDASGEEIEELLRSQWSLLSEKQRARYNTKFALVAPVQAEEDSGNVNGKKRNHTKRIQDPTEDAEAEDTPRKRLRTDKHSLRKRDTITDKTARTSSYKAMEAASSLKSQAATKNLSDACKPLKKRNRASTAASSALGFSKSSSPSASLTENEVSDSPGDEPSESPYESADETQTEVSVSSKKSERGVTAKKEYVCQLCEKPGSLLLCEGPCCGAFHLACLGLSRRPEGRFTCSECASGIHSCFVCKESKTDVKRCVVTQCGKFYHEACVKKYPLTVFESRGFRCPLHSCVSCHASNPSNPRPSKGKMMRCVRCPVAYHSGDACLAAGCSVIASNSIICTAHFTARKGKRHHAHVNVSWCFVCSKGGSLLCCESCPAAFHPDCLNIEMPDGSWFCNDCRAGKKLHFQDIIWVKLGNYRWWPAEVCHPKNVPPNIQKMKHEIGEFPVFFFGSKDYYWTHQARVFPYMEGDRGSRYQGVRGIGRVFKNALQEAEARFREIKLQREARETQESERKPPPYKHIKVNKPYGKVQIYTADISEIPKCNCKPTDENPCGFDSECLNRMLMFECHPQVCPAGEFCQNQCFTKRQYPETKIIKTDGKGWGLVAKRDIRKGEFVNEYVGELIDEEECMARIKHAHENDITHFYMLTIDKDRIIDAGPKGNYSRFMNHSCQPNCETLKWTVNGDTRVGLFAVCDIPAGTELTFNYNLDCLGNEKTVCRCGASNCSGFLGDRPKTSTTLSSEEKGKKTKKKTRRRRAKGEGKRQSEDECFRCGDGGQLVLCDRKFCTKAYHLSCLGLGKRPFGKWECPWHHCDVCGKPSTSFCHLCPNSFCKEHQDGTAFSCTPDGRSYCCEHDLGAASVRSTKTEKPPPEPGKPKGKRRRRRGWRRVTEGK

[14] = biological target: Estrogen receptor beta (Homo sapiens, UniProt Q92731); experiment: ERβ–SRC-3 coactivator interaction inhibitors, confirmation, orthogonal assay, biochemical, ELISA, streptavidin-HRP readout (AID 1060)
[15] = cytotoxicity toward NIH3T3 fibroblasts, dose response, counter-screen, cell-based, ATP luminescence, mouse fibroblasts (AID 2010); assay type: functional;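 note: cells exposed to compound for about 90 hours before reading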
[16] = cells
[17] = inhibitors of intracellular T. cruzi replication, confirmation, NIH3T3 host cells, beta-gal luminescence (AID 2044); assay type: functional, cell-based;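 note: intracellular parasites grown in NIH/3T3 mouse fibroblasts as host cells; luminescent beta-galactosidase reporter signal from transgenic T. cruzi replicating inside host cells; inhibitors lower the luminescence signal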

Sequence of Estrogen receptor beta (Q92731 whole entry): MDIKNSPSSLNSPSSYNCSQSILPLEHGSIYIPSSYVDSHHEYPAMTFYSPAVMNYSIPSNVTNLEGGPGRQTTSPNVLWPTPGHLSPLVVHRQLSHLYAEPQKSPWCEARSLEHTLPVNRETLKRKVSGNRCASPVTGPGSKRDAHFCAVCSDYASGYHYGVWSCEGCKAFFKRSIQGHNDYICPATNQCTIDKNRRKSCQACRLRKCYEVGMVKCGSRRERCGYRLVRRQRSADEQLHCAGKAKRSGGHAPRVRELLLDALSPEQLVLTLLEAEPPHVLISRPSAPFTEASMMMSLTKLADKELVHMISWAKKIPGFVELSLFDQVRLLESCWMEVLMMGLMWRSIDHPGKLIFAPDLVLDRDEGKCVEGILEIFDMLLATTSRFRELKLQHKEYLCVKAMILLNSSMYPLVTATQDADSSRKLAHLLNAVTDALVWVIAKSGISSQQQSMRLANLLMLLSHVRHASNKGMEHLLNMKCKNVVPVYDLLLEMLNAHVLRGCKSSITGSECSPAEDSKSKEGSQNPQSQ
Sequence of Luciferin 4-monooxygenase (P08659 whole entry): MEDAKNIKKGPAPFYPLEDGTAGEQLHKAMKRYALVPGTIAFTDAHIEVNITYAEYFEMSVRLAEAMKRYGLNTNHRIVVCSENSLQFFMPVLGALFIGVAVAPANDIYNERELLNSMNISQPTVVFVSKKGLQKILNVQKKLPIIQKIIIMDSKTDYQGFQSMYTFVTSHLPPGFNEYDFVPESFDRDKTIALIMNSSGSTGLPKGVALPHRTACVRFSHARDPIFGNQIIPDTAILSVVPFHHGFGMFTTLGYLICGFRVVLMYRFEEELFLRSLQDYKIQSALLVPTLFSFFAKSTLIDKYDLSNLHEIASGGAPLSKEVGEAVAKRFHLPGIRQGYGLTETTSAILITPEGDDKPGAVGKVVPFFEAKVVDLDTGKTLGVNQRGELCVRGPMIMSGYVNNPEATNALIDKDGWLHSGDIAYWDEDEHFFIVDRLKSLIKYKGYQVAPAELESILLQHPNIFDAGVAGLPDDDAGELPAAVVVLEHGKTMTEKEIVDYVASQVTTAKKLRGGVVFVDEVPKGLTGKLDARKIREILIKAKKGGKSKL
Sequence of Glyceraldehyde-3-phosphate dehydrogenase (P04406 whole entry): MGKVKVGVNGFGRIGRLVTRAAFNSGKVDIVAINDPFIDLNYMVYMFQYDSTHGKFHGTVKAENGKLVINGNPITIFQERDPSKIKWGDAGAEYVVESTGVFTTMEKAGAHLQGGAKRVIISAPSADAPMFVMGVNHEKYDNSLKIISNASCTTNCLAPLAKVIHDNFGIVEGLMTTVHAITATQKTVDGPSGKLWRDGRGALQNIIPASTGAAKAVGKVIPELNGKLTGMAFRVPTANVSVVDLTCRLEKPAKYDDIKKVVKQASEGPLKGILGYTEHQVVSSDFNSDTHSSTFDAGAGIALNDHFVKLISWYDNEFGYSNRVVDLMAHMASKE

## Cc1ccc(C(=O)CSc2nnnn2C(C)C)c(C)c1
[1]
  EC50: 14.7 µM (active)
[2]
  EC50: > 260 µM (inactive)
[3]
  EC50: 3.7 µM (active)
[4]
  EC50: > 50 µM (not active)
[5]
  EC50: 8.28 µM (active)
[6]
  AC50: 2.92 µM (active)
[7]
  EC50: 9.17 µM (active)

## O=C1C(Cl)=C(N2CCN(Cc3ccccc3)CC2)C(=O)N1c1ccnc(Cl)c1
[8]
  IC50: > 50 µM (inconclusive)

## COc1ccc(-c2noc(CCCC(=O)Nc3ccc(C(N)=O)cc3)n2)cc1
[9]
  IC50: > 80 µM (inactive)

## CC1=Nc2cccc3cccc(c23)N1C
[10]
  EC50: > 380 µM (inactive)
[11]
  IC50: > 50 µM (not active)
[12]
  AC50: > 380 µM (inactive)
[13]
  AC50: 1.25 µM (active)

## Cc1cc(-c2csc(N)n2)c(C)n1CCC(C)C
[4]
  EC50: > 50 µM (not active)
[5]
  EC50: 16 µM (active)

## CCc1ccc(NC(=O)CSc2nc(C)cc(O)n2)cc1
[14]
  IC50: 48.8 µM (not active)

## CSCCC(=O)N(C)CC1CCCN(CCc2cccc(C(F)(F)F)c2)C1 (stereo not drawn)
[15]
  EC50: > 60 µM (not active)
[16]
  EC50: 0.329 µM (active)
[17]
  EC50: < 0.1 µM (active)

## COCc1cc(CN2CCCC(C(=O)Nc3cccc(-n4cnnn4)c3)C2)ccc1OC (stereo not drawn)
[15]
  EC50: > 60 µM (not active)
[16]
  EC50: 0.061 µM (active)
[17]
  EC50: < 0.1 µM (active)

## CC(=N)/C(C#N)=C(/O)CSc1nnnn1-c1ccccc1
[14]
  IC50: > 50 µM (not active)

Source: ChEMBL document CHEMBL1201862, “PubChem BioAssay data set” (2004)
